PMC3961306, “Comparison of the Cancer Gene Targeting and Biochemical Selectivities of All Targeted Kinase Inhibitors Approved for Clinical Use” (PLoS ONE, 2014)
Read-outs that look alike come from different tables or passages of the source.

Columns and labels:
[1] = test system: forty-four human cancer cell lines; experiment: Cell proliferation assay (ATPlite, 72 hours) in the 44 cell line Oncolines panel; type: cell-based; conditions: Homo sapiens
[2] = biological target: panel of more than 300 wild-type and mutant kinases (313 kinase panel) (Homo sapiens, UniProt P00533, T790M); experiment: Kinase profiling in a biochemical assay panel (mobility shift assays and ELISA), %-inhibition at 1 μM; selectivity entropy; conditions: kinase EGFR(T790M); compound at 1 μM
[3] = biological target: panel of more than 300 wild-type and mutant kinases (313 kinase panel) (Homo sapiens, UniProt Q9UM73, R1275Q); experiment: as above; conditions: kinase ALK(R1275Q); 1 μM compound
[4] = biological target: panel of more than 300 wild-type and mutant kinases (313 kinase panel) (Homo sapiens, UniProt P22612); experiment: as above; conditions: kinase PKACγ; 1 μM
[5] = biological target: panel of more than 300 wild-type and mutant kinases (313 kinase panel) (Homo sapiens, UniProt P09619); experiment: as above; conditions: kinase PDGFRβ; 1 μM
[6] = biological target: panel of more than 300 wild-type and mutant kinases (313 kinase panel) (Homo sapiens, UniProt P11362, V561M); experiment: as above; conditions: kinase FGFR1(V561M); compound at 1 μM
[7] = biological target: panel of more than 300 wild-type and mutant kinases (313 kinase panel) (Homo sapiens, UniProt P15056); experiment: as above; conditions: kinase BRAF; 1 μM compound
[8] = biological target: panel of more than 300 wild-type and mutant kinases (313 kinase panel) (Homo sapiens, UniProt P15056, V600E); experiment: as above; conditions: kinase BRAF(V600E); 1 μM compound
[9] = biological target: panel of more than 300 wild-type and mutant kinases (313 kinase panel) (Homo sapiens, UniProt P00533, L858R); experiment: as above; conditions: 1 µM
[10] = biological target: panel of more than 300 wild-type and mutant kinases (313 kinase panel) (Homo sapiens, UniProt P00533); experiment: as above; conditions: 1 µM
[11] = biological target: panel of more than 300 wild-type and mutant kinases (313 kinase panel) (Homo sapiens, UniProt P00533, L858R/T790M); experiment: as above; conditions: 1 µM
[12] = biological target: panel of more than 300 wild-type and mutant kinases (313 kinase panel) (Homo sapiens, UniProt P07947, T348I); experiment: as above; conditions: kinase YES(T348I); compound at 1 μM
[13] = 4-4 cell, read-out: cell panel IC50, J82
[14] = 4-4 cell, read-out: cell panel IC50, PA-1
[15] = 4-4 cell, read-out: cell panel IC50, SJCRH30
[16] = 4-4 cell, read-out: cell panel IC50, SR
[17] = 769-P, read-out: cell panel IC50, 769-P
[18] = 786-0, read-out: cell panel IC50, 786-0
[19] = A 172, read-out: cell panel IC50, A-172
[20] = A204, read-out: cell panel IC50, A-204
[21] = A498, read-out: cell panel IC50, A-498
[22] = A549, read-out: cell panel IC50, A-549
[23] = A-375, read-out: cell panel IC50, A375
[24] = A-427, read-out: cell panel IC50, A-427
[25] = AN3-CA, read-out: cell panel IC50, AN3 CA
[26] = AU565, read-out: cell panel IC50, AU-565
[27] = BT-20, read-out: cell panel IC50, BT-20
[28] = BT-549, read-out: cell panel IC50, BT-549
[29] = BXPC-3, read-out: cell panel IC50, BxPC-3
[30] = C-33-A, read-out: cell panel IC50, C-33 A
[31] = CAL-27, read-out: cell panel IC50, CAL 27
[32] = CCRF-CEM, read-out: cell panel IC50, CCRF-CEM
[33] = DLD-1, read-out: cell panel IC50, DLD-1
[34] = FaDu, read-out: cell panel IC50, FaDu
[35] = HCT-15, read-out: cell panel IC50, HCT-15
[36] = HCT-116, read-out: cell panel IC50, HCT-116
[37] = Hs-578T, read-out: cell panel IC50, Hs 578T
[38] = Jurkat E6.1, read-out: cell panel IC50, Jurkat E6.1
[39] = K562, read-out: cell panel IC50, K-562
[40] = LS174T, read-out: cell panel IC50, LS 174T
[41] = LoVo, read-out: cell panel IC50, LoVo
[42] = MG-63, read-out: cell panel IC50, MG-63
[43] = MOLT-4, read-out: cell panel IC50, MOLT-4
[44] = MeWo, read-out: cell panel IC50, MeWo
[45] = NCI-H82, read-out: cell panel IC50, NCI-H82
[46] = NCI-H460, read-out: cell panel IC50, NCI-H460
[47] = OVCAR-3, read-out: cell panel IC50, OVCAR-3
[48] = RPMI-7951, read-out: cell panel IC50, RPMI-7951
[49] = SHP77, read-out: cell panel IC50, SHP-77
[50] = SK-N-AS, read-out: cell panel IC50, SK-N-AS
[51] = SW48, read-out: cell panel IC50, SW48
[52] = SW480, read-out: cell panel IC50, SW480
[53] = SW-620, read-out: cell panel IC50, SW620
[54] = U2OS, read-out: cell panel IC50, U-2 OS
[55] = U-87 MG, 72 h, read-out: IC50 in cell proliferation assay (table S5 cellpanel data)

COc1cc(Nc2c(C#N)cnc3cc(OCCCN4CCN(C)CC4)c(OC)cc23)c(Cl)cc1Cl [bosutinib]
IC50 [1, 13]: 4.47 µM
IC50 [1, 14]: 1.26 µM
IC50 [1, 15]: 4.39 µM
IC50 [1, 16]: 0.983 µM
IC50 [1, 17]: 1.24 µM
IC50 [1, 18]: 2.2 µM
IC50 [1, 19]: 3.69 µM
IC50 [1, 20]: 5.69 µM
IC50 [1, 21]: 1.51 µM
IC50 [1, 22]: 2.38 µM
IC50 [1, 23]: 2 µM
IC50 [1, 24]: 2.32 µM
IC50 ([1]; ACHN, read-out: cell panel IC50, ACHN): 0.808 µM
IC50 [1, 25]: 8.02 µM
IC50 [1, 26]: 4.03 µM
IC50 [1, 27]: 9 µM
IC50 [1, 28]: 4.94 µM
IC50 [1, 29]: 2.74 µM
IC50 [1, 30]: 0.108 µM
IC50 [1, 31]: 1.69 µM
IC50 [1, 32]: 3.55 µM
IC50 [1, 33]: 2.25 µM
IC50 [1, 34]: 1.93 µM
IC50 [1, 35]: 2.05 µM
IC50 [1, 36]: 2.9 µM
IC50 [1, 37]: 3.63 µM
IC50 [1, 38]: 0.466 µM
IC50 [1, 39]: 0.014 µM
IC50 [1, 40]: 1.18 µM
IC50 [1, 41]: 0.811 µM
IC50 [1, 42]: 4.21 µM
IC50 [1, 43]: 1.29 µM
IC50 [1, 44]: 5.6 µM
IC50 [1, 45]: 3.5 µM
IC50 [1, 46]: 3.72 µM
IC50 [1, 47]: 3.03 µM
IC50 [1, 48]: 3.23 µM
IC50 [1, 49]: 11.5 µM
IC50 [1, 50]: 0.923 µM
IC50 [1, 51]: 11.7 µM
IC50 [1, 52]: 10.5 µM
IC50 [1, 53]: 10.6 µM
IC50 [1, 54]: 2.62 µM
IC50 [1, 55]: 6.95 µM
%-inhibition of EGFR(T790M) [2]: 87%
%-inhibition, ALK(R1275Q) [3]: 61%
%-inhibition of PKACγ [4]: 53%
%-inhibition of PDGFRβ [5]: 95%

Cc1ccc(C(=O)Nc2ccc(CN3CCN(C)CC3)c(C(F)(F)F)c2)cc1C#Cc1cnc2cccnn12 [ponatinib]
IC50 [1, 13]: 1.53 µM
IC50 [1, 14]: 0.814 µM
IC50 [1, 15]: 1.11 µM
IC50 [1, 16]: 0.836 µM
IC50 [1, 17]: 1.8 µM
IC50 [1, 18]: 1.87 µM
IC50 [1, 19]: 0.626 µM
IC50 [1, 20]: 0.092 µM
IC50 [1, 21]: 1.32 µM
IC50 [1, 22]: 1.15 µM
IC50 [1, 23]: 1.14 µM
IC50 [1, 24]: 0.352 µM
IC50 [1, 25]: 0.124 µM
IC50 [1, 26]: 1.42 µM
IC50 [1, 27]: 5.12 µM
IC50 [1, 28]: 1.85 µM
IC50 [1, 29]: 0.817 µM
IC50 [1, 30]: 1 µM
IC50 [1, 31]: 1.73 µM
IC50 [1, 32]: 2.25 µM
IC50 [1, 33]: 1.13 µM
IC50 [1, 34]: 1.11 µM
IC50 [1, 35]: 0.913 µM
IC50 [1, 36]: 1.21 µM
IC50 [1, 37]: 1.18 µM
IC50 [1, 38]: 0.403 µM
IC50 [1, 39]: 0.0065 µM
IC50 [1, 40]: 2.05 µM
IC50 [1, 41]: 0.38 µM
IC50 [1, 42]: 2.48 µM
IC50 [1, 43]: 0.977 µM
IC50 [1, 44]: 2.22 µM
IC50 [1, 45]: 1.1 µM
IC50 [1, 46]: 1.43 µM
IC50 [1, 47]: 2.95 µM
IC50 [1, 48]: 1.15 µM
IC50 [1, 49]: 6.49 µM
IC50 [1, 50]: 1.08 µM
IC50 [1, 51]: 1.55 µM
IC50 [1, 52]: 2.17 µM
IC50 [1, 53]: 0.799 µM
IC50 [1, 54]: 1.11 µM
IC50 [1, 55]: 3.1 µM
%-inhibition of FGFR1(V561M) [6]: 98%
%-inhibition, BRAF [7]: 89%
%-inhibition, BRAF(V600E) [8]: 84%
%-inhibition of EGFR(L858R) [9]: 95%
%-inhibition of EGFR [10]: 97%
%-inhibition of EGFR(T790M/L858R) [11]: 49%
%-inhibition, ALK(R1275Q) [3]: 45%
%-inhibition of YES(T348I) [12]: 96%
%-inhibition of PDGFRβ [5]: 102%
